Source: patent US20230159445A1, “STAT INHIBITORY COMPOUNDS AND COMPOSITIONS” (JANPIX LIMITED, priority 2020, published 2023)

Key:
[1] = system: normal human fibroblast (NHF) cells; assay: NHF Cell Cytotoxicity Assay (CellTiter-Blue, 72 h), off-target effects; assay type: cell-based; settings: Homo sapiens, Fibroblast; pooled NHF cells
Protocol: In some embodiments, the off-target effects of the compounds are evaluated in healthy human cells, such as in a normal human fibroblast (NHF) cell cytotoxicity assay.
Cell viability was examined following treatment at various concentrations of inhibitor (0.097656-50 μM) using a cell Titer-Blue cell viability assay. 1×10^4 normal human fibroblast cells per well were plated in 96-well assay plates in culture medium. All cells are grown in DMEM, IMDM and RPMI-1640 were supplemented with 10% FBS. After 24 hours, test compounds and vehicle controls are added to appropriate wells so the final volume was 100 μl in each well. The cells are cultured for the desired test exposure period (72 hours) at 37° C. and 5% CO2. The assay plates are removed from 37° C. incubator and 20 μL/well of CellTiter-Blue® Reagent is added. The plates are incubated using standard cell culture conditions for 1-4 hours and the plates are shaken for 10 seconds and record fluorescence at 560/590nm. For each sample well, value is normalized between the DMSO control and the highest concentration in case of plateau, and converted into a percentage. In the absence of plateau, minimum lecture is obtained from a different sample within the same experiment. For each concentration, the four replicates are averaged and standard deviation calculated. Data is fitted to a log(inhibitor) vs response curve with variable slope model using Microsoft Excel, obtaining IC50 and Hill slope variables.
A person skilled in the art would appreciate that a higher IC50 value in this NHF assay can indicate lower off-target effects.

[2] = system: MV4-11 cells; assay: MV4-11 Cell Cytotoxicity Assay (CellTiter-Blue, 72 h); assay type: cell-based, human; settings: Homo sapiens, MV4-11; MV-4-11 cells
How it was run: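 Viability read-out: CellTiter-Blue, 1 h, fluorescence 560/590 nm. Preceded by 72 h exposure (37° C, 5% CO2) to twofold dilution series from 50 μM, triplicate, 0.5% DMSO vehicle, applied 24 h after plating.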

[3] = system: glutathione (GSH); assay: Reactivity Profiling with Glutathione (GSH), half-life by HPLC; settings: 5 mM glutathione (GSH) in IMDM with 10% FBS

| half-life at 25 μM [3] [h] | Structure (SMILES) | IC50 [1] [nM] | IC50 [2] [nM] |
| --- | --- | --- | --- |
| 4.12 to 9.23 | COc1cc(C(=O)O)ccc1N(Cc1cc(C2CC2)cc(C(C)(C)C)c1)C(=O)CN(Cc1c(F)c(F)c(F)c(F)c1F)S(=O)(=O)c1c(F)c(F)c(F)c(F)c1F [Compound 1066, 4-(N-(3-(tert-butyl)-5-cyclopropylbenzyl)-2-(N-((perfluorophenyl)methyl)-(2,3,4,5,6-pentafluoro-phenyl)sulfonamido)acetamido)-3-methoxybenzoic acid] | 1 to 10000 | 0.01 to 316 |
| 0.00167 to 2.37 | COc1cc(C(=O)O)ccc1N(Cc1cc(C2CC2)cc(C(C)(C)C)c1)C(=O)CN(Cc1ccccc1C#N)S(=O)(=O)c1c(F)c(F)c(F)c(F)c1F [Compound 1075, 4-(N-(3-(tert-butyl)-5-cyclopropylbenzyl)-2-(N-(2-cyanobenzyl)-(2,3,4,5,6-pentafluorophenyl)sulfon-amido)acetamido)-3-methoxybenzoic acid] | 10000 to 20000 | 0.01 to 316 |
| 0.00167 to 2.37 | COc1cc(C(=O)O)ccc1N(Cc1cc(C2CC2)cc(C(C)(C)C)c1)C(=O)CN(Cc1ccncc1F)S(=O)(=O)c1c(F)c(F)c(F)c(F)c1F [Compound 1078, 4-(N-(3-(tert-butyl)-5-cyclopropylbenzyl)-2-(N-((3-fluoropyridin-4-yl)methyl)-(2,3,4,5,6-pentafluoro-phenyl)sulfonamido)acetamido)-3-methoxybenzoic acid] | 1 to 10000 | 316 to 1000 |
| 4.12 to 9.23 | COc1cc(C(=O)O)ccc1N(Cc1cc(C2CC2)cc(C(C)(C)C)c1)C(=O)CN(Cc1c(F)cc(F)cc1F)S(=O)(=O)c1c(F)c(F)c(F)c(F)c1F [Compound 1081] | 1 to 10000 | 0.01 to 316 |
| 4.12 to 9.23 | COc1cc(C(=O)O)ccc1N(Cc1cc(C2CC2)cc(C(C)(C)C)c1)C(=O)CN(Cc1ccccc1C(F)(F)F)S(=O)(=O)c1c(F)c(F)c(F)c(F)c1F [Compound 1087, 4-(N-(3-(tert-butyl)-5-cyclopropylbenzyl)-2-(N-(2-(trifluoromethyl)benzyl)-(2,3,4,5,6-pentafluoro-phenyl)sulfonamido)acetamido)-3-methoxybenzoic acid] | 20000 to 30000 | 0.01 to 316 |
| 4.12 to 9.23 | CC(C)(C)c1cc(CN(C(=O)CN(Cc2ccccc2F)S(=O)(=O)c2c(F)c(F)c(F)c(F)c2F)c2ccc(C(=O)O)cc2C2CC2)cc(C2CC2)c1 [Compound 1091, 4-(N-(3-(tert-butyl)-5-cyclopropylbenzyl)-2-(N-(2-fluorobenzyl)-(2,3,4,5,6-pentafluoro-phenyl)sulfonamido)acetamido)-3-cyclopropylbenzoic acid] | 1 to 10000 | 0.01 to 316 |
| 4.12 to 9.23 | CC(C)(C)c1cc(CN(C(=O)CN(Cc2ccccc2F)S(=O)(=O)c2c(F)c(F)c(F)c(F)c2F)c2ccc(C(=O)O)cc2C(F)(F)F)cc(C2CC2)c1 [Compound 1092, 4-(N-(3-(tert-butyl)-5-cyclopropylbenzyl)-2-(N-(2-fluorobenzyl)-(2,3,4,5,6-pentafluoro-phenyl)sulfonamido)acetamido)-3-(trifluoromethyl)benzoic acid] | 10000 to 20000 | 0.01 to 316 |
| 9.23 to 1670 | CC(C)(C)c1cc(CN(C(=O)CN(Cc2ccccc2F)S(=O)(=O)c2c(F)c(F)c(F)c(F)c2F)c2ccc(C(=O)O)cc2OC2CCCC2)cc(C2CC2)c1 [Compound 1094, 4-(N-(3-(tert-butyl)-5-cyclopropylbenzyl)-2-(N-(2-fluorobenzyl)-(2,3,4,5,6-pentafluoro-phenyl)sulfonamido)acetamido)-3-(cyclopentyloxy)benzoic acid] | 20000 to 30000 | 0.01 to 316 |
| 2.37 to 4.12 | COc1cc(C(=O)O)ccc1N(Cc1cc(C2CC2)cc(C(C)(C)C)c1)C(=O)CN(Cc1ncccc1C(F)(F)F)S(=O)(=O)c1c(F)c(F)c(F)c(F)c1F [Compound 1098, 4-(N-(3-(tert-butyl)-5-cyclopropylbenzyl)-2-(N-((3-(trifluoromethyl)pyridin-2-yl)methyl)-(2,3,4,5,6-pentafluoro-phenyl)sulfonamido)acetamido)-3-methoxybenzoic acid] | 20000 to 30000 | 316 to 1000 |
| 9.23 to 1670 | CC(C)(C)c1cc(CN(C(=O)CN(Cc2c(F)c(F)c(F)c(F)c2F)S(=O)(=O)c2c(F)c(F)c(F)c(F)c2F)c2ccc(C(=O)O)cc2OC2CC2)cc(C2CC2)c1 [Compound 1108, 4-(N-(3-(tert-butyl)-5-cyclopropylbenzyl)-2-(N-((perfluorophenyl)methyl)-(2,3,4,5,6-pentafluorophenyl)sulfonamido)acetamido)-3-cyclopropoxybenzoic acid] | 1 to 10000 | 0.01 to 316 |
| 9.23 to 1670 | CC(C)(C)c1cc(CN(C(=O)CN(Cc2ccccc2C(F)(F)F)S(=O)(=O)c2c(F)c(F)c(F)c(F)c2F)c2ccc(C(=O)O)cc2OC2CC2)cc(C2CC2)c1 [Compound 1111, 4-(N-(3-(tert-butyl)-5-cyclopropylbenzyl)-2-(N-(2-(trifluoromethyl)benzyl)-(2,3,4,5,6-pentafluoro-phenyl)sulfonamido)acetamido)-3-cyclopropoxybenzoic acid] | 30000 to 100000 | 0.01 to 316 |
| 2.37 to 4.12 | COc1cc(C(=O)O)ccc1N(Cc1cc(C2CC2)cc(C(C)(C)C)c1)C(=O)CN(Cc1cnccc1C(F)(F)F)S(=O)(=O)c1c(F)c(F)c(F)c(F)c1F [Compound 1116, 4-(N-(3-(tert-butyl)-5-cyclopropylbenzyl)-2-(N-((4-(trifluoromethyl)pyridin-3-yl)methyl)-(2,3,4,5,6-pentafluoro-phenyl)sulfonamido)acetamido)-3-methoxybenzoic acid] | 10000 to 20000 | 0.01 to 316 |
| 4.12 to 9.23 | CC(C)(C)c1cc(CN(C(=O)CN(Cc2ncccc2C(F)(F)F)S(=O)(=O)c2c(F)c(F)c(F)c(F)c2F)c2ccc(C(=O)O)cc2OC2CC2)cc(C2CC2)c1 [Compound 1119, 4-(N-(3-(tert-butyl)-5-cyclopropylbenzyl)-2-(N-((3-(trifluoromethyl)pyridin-2-yl)methyl)-(2,3,4,5,6-pentafluoro-phenyl)sulfonamido)acetamido)-3-cyclopropoxybenzoic acid] | 30000 to 100000 | 316 to 1000 |
| 9.23 to 1670 | CC(C)(C)c1cc(CN(C(=O)CN(Cc2c(F)cc(F)cc2F)S(=O)(=O)c2c(F)c(F)c(F)c(F)c2F)c2ccc(C(=O)O)cc2OC2CC2)cc(C2CC2)c1 [Compound 1122, 4-(N-(3-(tert-butyl)-5-cyclopropylbenzyl)-2-(N-(2,4,6-trifluorobenzyl)-(2,3,4,5,6-pentafluoro-phenyl)sulfonamido)acetamido)-3-cyclopropoxybenzoic acid] | 10000 to 20000 | 0.01 to 316 |
| 9.23 to 1670 | CC(C)(C)c1cc(CN(C(=O)CN(Cc2c(F)cc(F)cc2F)S(=O)(=O)c2c(F)c(F)c(F)c(F)c2F)c2ccc(C(=O)O)cc2C2CC2)cc(C2CC2)c1 [Compound 1123, 4-(N-(3-(tert-butyl)-5-cyclopropylbenzyl)-2-(N-(2,4,6-trifluorobenzyl)-(2,3,4,5,6-pentafluoro-phenyl)sulfonamido)acetamido)-3-cyclopropylbenzoic acid] | 1 to 10000 | 0.01 to 316 |
| 4.12 to 9.23 | O=C(O)c1ccc(N(Cc2cc(C3CC3)cc(C3CC3)c2)C(=O)CN(Cc2ccccc2C(F)(F)F)S(=O)(=O)c2c(F)c(F)c(F)c(F)c2F)c(OC2CC2)c1 [Compound 1141] | 20000 to 30000 | 0.01 to 316 |
| 4.12 to 9.23 | CC(C)(C)c1cc(CN(C(=O)CN(Cc2cnccc2C(F)(F)F)S(=O)(=O)c2c(F)c(F)c(F)c(F)c2F)c2ccc(C(=O)O)cc2OC2CC2)cc(C2CC2)c1 [Compound 1142, 4-(N-(3-(tert-butyl)-5-cyclopropylbenzyl)-2-(N-((4-(trifluoromethyl)pyridin-3-yl)methyl)-(2,3,4,5,6-pentafluoro-phenyl)sulfonamido)acetamido)-3-cyclopropoxybenzoic acid] | 20000 to 30000 | 0.01 to 316 |
| 4.12 to 9.23 | COc1cc(C(=O)O)ccc1N(Cc1cc(C2CC2)cc(C(C)(C)C)c1)C(=O)CN(Cc1ccc(F)cc1Cl)S(=O)(=O)c1c(F)c(F)c(F)c(F)c1F [Compound 1143, 4-(N-(3-(tert-butyl)-5-cyclopropylbenzyl)-2-(N-(2-chloro-4-fluorobenzyl)-(2,3,4,5,6-pentafluorophenyl)sulfon-amido)acetamido)-3-methoxybenzoic acid] | 10000 to 20000 | 0.01 to 316 |
| 2.37 to 4.12 | COc1cc(C(=O)O)ccc1N(Cc1cc(C2CC2)cc(C(C)(C)C)c1)C(=O)CN(Cc1c(F)cccc1F)S(=O)(=O)c1c(F)c(F)c(F)c(F)c1F [Compound 1145, 4-(N-(3-(tert-butyl)-5-cyclopropylbenzyl)-2-(N-(2,6-difluorobenzyl)-(2,3,4,5,6-pentafluorophenyl)sulfon-amido)acetamido)-3-methoxybenzoic acid] | 1 to 10000 | 0.01 to 316 |
